Results from patent US8906925B2, “Pyrido[4,3-B]indoles containing rigid moieties” (Medivation Technologies, Inc., priority 2008, dated 2014).
Read-outs that look alike come from different tables or passages of the source.

Legend:
histamine receptor H1 = histamine receptor H1 (Homo sapiens, UniProt P35367); assay: Histamine H1 radioligand binding ([3H]Pyrilamine); conditions: read-out: Histamine Binding (1 μM) H1, percent inhibition of specific binding, 1 μM
Method: To evaluate in radioligand binding assays the activity of compounds of the invention, human recombinant histamine H1 receptor expressed in Chinese hamster ovary (CHO) cells (De Backer, M. D. et al., Biochem. Biophys. Res. Comm. 197(3):1601, 1993) in a modified Tris-HCl buffer (50 mM Tris-HCl, pH 7.4, 2 mM MgCl2, 100 mM NaCl, 250 mM Sucrose) was used. Compounds of the invention were incubated with 1.2 nM [^3H]Pyrilamine for 180 min. at 25° C. Non-specific binding was estimated in the presence of 1 μM pyrilamine. Receptor proteins were filtered and washed, the filters were then counted to determine [^3H]Pyrilamine specifically bound. Compounds were screened at 1 μM or lower, using 1% DMSO as vehicle. Biochemical assay results are presented as the percent inhibition of specific binding in Table 8.

[1] = biological target: human dopamine D2L receptor (Homo sapiens, UniProt P14416); assay: Dopamine D2L radioligand binding ([3H]Spiperone); conditions: compound at 1 μM
Source text: Non-specific binding was estimated in the presence of […] Haloperidol. Receptor proteins were filtered and washed, the filters were then counted to determine [^3H]Spiperone specifically bound. […] Biochemical assay results are presented as the percent inhibition of specific binding in Table 9.

[2] = […] [3H]Spiperone, read-out: Inhibition of ligand binding, Dopamine D2L (percent inhibition of specific binding)
[3] = percent inhibition of specific binding, read-out: Inhibition of ligand binding, Dopamine D2L

Sequence of human dopamine D2L receptor (P14416 whole entry): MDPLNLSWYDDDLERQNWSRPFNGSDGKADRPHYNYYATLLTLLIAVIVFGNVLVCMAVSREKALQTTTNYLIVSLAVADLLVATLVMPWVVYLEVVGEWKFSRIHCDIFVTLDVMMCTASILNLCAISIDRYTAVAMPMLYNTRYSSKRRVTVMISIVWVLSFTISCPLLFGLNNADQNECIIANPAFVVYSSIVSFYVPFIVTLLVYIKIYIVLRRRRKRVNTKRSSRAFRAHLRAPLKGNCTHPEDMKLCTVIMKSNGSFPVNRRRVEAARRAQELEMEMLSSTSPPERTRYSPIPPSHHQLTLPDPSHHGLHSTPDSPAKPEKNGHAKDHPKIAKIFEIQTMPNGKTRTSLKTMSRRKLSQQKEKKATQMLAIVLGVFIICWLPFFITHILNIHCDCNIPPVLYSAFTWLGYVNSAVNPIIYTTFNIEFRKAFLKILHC
Sequence of histamine receptor H1 (P35367 whole entry): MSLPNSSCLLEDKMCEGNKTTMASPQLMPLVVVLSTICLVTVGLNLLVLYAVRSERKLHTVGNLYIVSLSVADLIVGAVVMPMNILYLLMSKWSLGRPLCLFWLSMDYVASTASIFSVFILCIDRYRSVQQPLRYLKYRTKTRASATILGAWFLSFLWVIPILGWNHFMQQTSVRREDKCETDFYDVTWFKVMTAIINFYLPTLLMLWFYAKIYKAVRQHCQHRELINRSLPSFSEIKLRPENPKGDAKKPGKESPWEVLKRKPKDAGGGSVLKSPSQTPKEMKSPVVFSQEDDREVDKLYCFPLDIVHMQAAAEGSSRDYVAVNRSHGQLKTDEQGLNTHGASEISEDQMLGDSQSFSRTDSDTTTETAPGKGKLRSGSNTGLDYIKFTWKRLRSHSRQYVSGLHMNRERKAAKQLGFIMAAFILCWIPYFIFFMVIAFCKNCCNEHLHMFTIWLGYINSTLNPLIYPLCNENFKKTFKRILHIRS

Row | SMILES | inhibition at 1 µM (histamine receptor H1) [%] | inhibition at 1 µM [1, 2] [%] | inhibition at 1 µM [1, 3] [%]
1 | CN1CCc2c(c3cc(Cl)ccc3n2/C=C(\c2ccccc2)c2ccncc2)C1 [Compound No. 460, (E)-8-chloro-2-methyl-5-(2-phenyl-2-(pyridin-4-yl)vinyl)-2,3,4,5-tetrahydro-1H-pyrido[4,3-b]indole] | 17 | 67 | –
2 | C/C(=C\n1c2c(c3cc(C)ccc31)CN(C)CC2)c1cc(F)c(O)c(F)c1 [compound 452, (E)-4-(1-(2,8-dimethyl-3,4-dihydro-1H-pyrido[4,3-b]indol-5(2H)-yl)prop-1-en-2-yl)-2,6-difluorophenol] | 18 | 71 | –
3 | C/C(=C\n1c2c(c3cc(C)ccc31)CN(C)CC2)c1cncnc1 [Compound 293, (E)-2,8-dimethyl-5-(2-(pyrimidin-5-yl)prop-1-enyl)-2,3,4,5-tetrahydro-1H-pyrido[4,3-b]indole] | 9 | – | 31
4 | C/C(=C\n1c2c(c3cc(C)ccc31)CN(C)CC2)c1ccsc1 [compound 387, (E)-2,8-dimethyl-5-(2-(thiophen-3-yl)prop-1-enyl)-2,3,4,5-tetrahydro-1H-pyrido[4,3-b]indole] | 84 | 99 | –
5 | CO/C(=C\n1c2c(c3cc(C)ccc31)CN(C)CC2)c1ccncc1 [compound 413, (Z)-5-(2-methoxy-2-(pyridin-4-yl)vinyl)-2,8-dimethyl-2,3,4,5-tetrahydro-1H-pyrido[4,3-b]indole] | 16 | 60 | –
6 | C/C(=C\n1c2c(c3cc(C)ccc31)CN(C)CC2)c1cccc(C(=O)N(C)C)c1 [compound 457, (E)-3-(1-(2,8-dimethyl-3,4-dihydro-1H-pyrido[4,3-b]indol-5(2H)-yl)prop-1-en-2-yl)-N,N-dimethylbenzamide] | 37 | 53 | –
7 | Cc1ccc2c(c1)c1c(n2/C=C(/c2ccccc2)c2ccncc2)CCN(C)C1 [compound 453, (Z)-2,8-dimethyl-5-(2-phenyl-2-(pyridin-4-yl)vinyl)-2,3,4,5-tetrahydro-1H-pyrido[4,3-b]indole] | 26 | 51 | –
8 | C/C(=C\n1c2c(c3cc(Cl)ccc31)CN(C(=O)OCc1ccccc1)CC2)c1ccncc1 [compound 396, (E)-benzyl 8-chloro-5-(2-(pyridin-4-yl)prop-1-enyl)-3,4-dihydro-1H-pyrido[4,3-b]indole-2(5H)-carboxylate] | 15 | 7 | –
9 | C/C(=C\n1c2c(c3cc(NC4CCC4)ccc31)CN(C)CC2)c1ccncc1 [compound 448, (E)-N-cyclobutyl-2-methyl-5-(2-(pyridin-4-yl)prop-1-enyl)-2,3,4,5-tetrahydro-1H-pyrido[4,3-b]indol-8-amine] | -10 | 79 | –
10 | Cc1ccc2c(c1)c1c(n2/C=C(\F)c2cscn2)CCN(C)C1 [compound 438, (Z)-4-(2-(2,8-dimethyl-3,4-dihydro-1H-pyrido[4,3-b]indol-5(2H)-yl)-1-fluorovinyl)thiazole] | 92 | 17 | –
11 | C/C(=C\n1c2c(c3cc(Cl)ccc31)CN(C)CC2)c1cncnc1 [Compound 346, (E)-8-chloro-2-methyl-5-(2-(pyrimidin-5-yl)prop-1-enyl)-2,3,4,5-tetrahydro-1H-pyrido[4,3-b]indole] | 17 | – | 26
12 | C/C(=C\n1c2c(c3cc(N(C)C)ccc31)CN(C)CC2)c1ccncc1 [compound 450, (E)-N,N,2-trimethyl-5-(2-(pyridin-4-yl)prop-1-enyl)-2,3,4,5-tetrahydro-1H-pyrido[4,3-b]indol-8-amine] | 43 | 35 | –
13 | C/C(=C\n1c2c(c3cc(Cl)ccc31)CN(C)CC2)c1cnc(C)cn1 [compound 385, (E)-8-chloro-2-methyl-5-(2-(5-methylpyrazin-2-yl)prop-1-enyl)-2,3,4,5-tetrahydro-1H-pyrido[4,3-b]indole] | 68 | 51 | –
14 | Cc1ccc2c(c1)c1c(n2C#Cc2cscn2)CCN(C)C1 [Compound No. 498, 4-((2,8-dimethyl-3,4-dihydro-1H-pyrido[4,3-b]indol-5(2H)-vyl)ethynyl)thiazole] | 65 | 9 | –
15 | C/C(=C\n1c2c(c3cc(N4CCN(C)CC4)ccc31)CN(C)CC2)c1ccncc1 [compound 437, (E)-2-methyl-8-(4-methylpiperazin-1-yl)-5-(2-(pyridin-4-yl)prop-1-enyl)-2,3,4,5-tetrahydro-1H-pyrido[4,3-b]indole] | 44 | 15 | –
16 | Cc1ccc2c(c1)c1c(n2CC(C)(O)c2ccncc2)CCN(C2CC2)C1 (centres unmarked) [Compound 342, 1-(2-cyclopropyl-8-methyl-3,4-dihydro-1H-pyrido[4,3-b]indol-5(2H)-yl)-2-(pyridin-4-yl)propan-2-ol] | 48 | – | 11
17 | Cc1ccc2c(c1)c1c(n2/C=C(\F)c2cccs2)CCN(C)C1 [compound 451] | 99 | 70 | –
18 | COc1cccc2c3c(n(CC(C)(O)c4ccncc4)c12)CCN(C)C3 (centres unmarked) [Compound 343, 1-(6-methoxy-2-methyl-3,4-dihydro-1H-pyrido[4,3-b]indol-5(2H)-yl)-2-(pyridin-4-yl)propan-2-ol] | 22 | – | 9
19 | CN1CCc2c(c3cc(Cl)ccc3n2C#Cc2ccc(C(F)(F)F)nc2)C1 [Compound No. 486, 8-chloro-2-methyl-5-((6-(trifluoromethyl)pyridin-3-yl)ethynyl)-2,3,4,5-tetrahydro-1H-pyrido[4,3-b]indole] | 22 | 14 | –
20 | CN1CCc2c(c3cc(Cl)ccc3n2CC(O)(c2ccccc2)c2ccccc2)C1 [Compound No. 466, 2-(8-chloro-2-methyl-3,4-dihydro-1H-pyrido[4,3-b]indol-5(2H)-yl)-1,1-diphenylethanol] | 10 | 54 | –
21 | CSc1cccc(/C(C)=C/n2c3c(c4cc(C)ccc42)CN(C)CC3)c1 [Compound No. 474, (E)-2,8-dimethyl-5-(2-(3-(methylthio)phenyl)prop-1-enyl)-2,3,4,5-tetrahydro-1H-pyrido[4,3-b]indole] | 98 | 53 | –
22 | Cc1ccc2c(c1)c1c(n2C#Cc2ccoc2)CCN(C)C1 [Compound No. 492, 5-(furan-3-ylethynyl)-2,8-dimethyl-2,3,4,5-tetrahydro-1H-pyrido[4,3-b]indole] | 68 | 60 | –
23 | C/C(=C\n1c2c(c3cc(C)ccc31)CN(C)CC2)c1cnc(C)cn1 [compound 386, (E)-2,8-dimethyl-5-(2-(5-methylpyrazin-2-yl)prop-1-enyl)-2,3,4,5-tetrahydro-1H-pyrido[4,3-b]indole] | 8 | 25 | –
24 | Cc1ccc2c(c1)c1c(n2CC(O)(c2ccccc2)c2ccccc2)CCN(C)C1 [Compound No. 465, 2-(2,8-dimethyl-3,4-dihydro-1H-pyrido[4,3-b]indol-5(2H)-yl)-1,1-diphenylethanol] | -14 | 21 | –
25 | Cc1ccc2c(c1)c1c(n2C#Cc2ccsc2)CCN(C)C1 [Compound No. 491, 2,8-dimethyl-5-(thiophen-3-ylethynyl)-2,3,4,5-tetrahydro-1H-pyrido[4,3-b]indole] | 52 | 82 | –
